Structures can show the parent of a compound that is named as a salt.

Turning to `COc1cc2nncc(N3CCN(C(=S)NCc4cccnc4)CC3)c2cc1OC` [Compound 427, 4-(6,7-Dimethoxy-4-cinnolinyl)-N-(3-picolyl)-1-piperazinethiocarboxamide], the melting point is 181 to 190 °C. On to `COc1cc(OC)c2ncnc(N3CCN(C(=S)NCc4cccnc4)CC3)c2c1` (as salt: hydrochloride) [Compound 382, 4-(6,8-Dimethoxy-4-quinazolinyl)-N-(3-picolyl)-1-piperazinethiocarboxamide], for which the melting point lay within 164 to 167 °C. In the case of `Cc1ccc2c(N3CCN(C(=O)Nc4ccc([N+](=O)[O-])cc4)CC3)ncnc2c1` [Compound 313, 4-(7-Methyl-4-quinazolinyl)-N-(4-nitrophenyl)-1-piperazinecarboxamide] it was 251 to 254 °C; in that of `COc1cc2ncnc(N3CCN(C(=S)NCc4ccco4)CC3)c2cc1OC` [Compound 94, 4-(6,7-Dimethoxy-4-quinazolinyl)-N-furfuryl-1-piperazinethiocarboxamide], 189 to 190 °C; in that of `CCCCc1ccc(NC(=O)N2CCN(c3ncnc4cc(OC)c(OC)cc34)CC2)cc1` [Compound 20, N-(4-Butylphenyl)-4-(6,7-dimethoxy-4-quinazolinyl)-1-piperazinecarboxamide], 216 to 222 °C. In the case of `O=C(Nc1ccc([N+](=O)[O-])cc1)N1CCN(c2ncnc3ccccc23)CC1` [Compound 103, N-(4-Nitrophenyl)-4-(4-quinazolinyl)-1-piperazinecarboxamide] it was 155 to 158 °C; in that of `COc1ccc2ncnc(N3CCN(C(=S)NCc4ccccc4)CC3)c2c1` [Compound 309, N-Benzyl-4-(6-methoxy-4-quinazolinyl)-1-piperazinethiocarboxamide], 68 to 70 °C. For the molecule `CCSc1ccc(NC(=O)N2CCN(c3ncnc4cc(OC)c(OC)cc34)CC2)cc1` [Compound 219, 4-(6,7-Dimethoxy-4-quinazolinyl)-N-(4-ethylthiophenyl)-1-piperazinecarboxamide], the melting point was 208 to 209 °C. Molecule `COc1cc2c(N3CCN(C(=O)Nc4ccc(Oc5ccccc5)cc4)CC3)ncnc2c(OC)c1OC` [Compound 108, N-(4-Phenoxyphenyl)-4-(6,7,8-trimethoxy-4-quinazolinyl)-1-piperazinecarboxamide] showed a melting point of 83 to 84 °C. For `CCOc1cc2ncnc(N3CCN(C(=O)Nc4ccc(C#N)cc4)CC3)c2cc1OCC` [Compound 352, N-(4-Cyanophenyl)-4-(6,7-diethoxy-4-quinazolinyl)-1-piperazinecarboxamide], the melting point was in the range of 186 to 187 °C. `COc1cc2ncnc(N3CCN(C(=O)Nc4ccc5[nH]ccc5c4)CC3)c2cc1OC` [Compound 118, 4-(6,7-Dimethoxy-4-quinazolinyl)-N-(5-indolyl)-1-piperazinecarboxamide] gave a melting point of 209 to 210 °C.

In turn, `S=C(NCc1ccccc1)N1CCN(c2ncnc3cc4ccccc4cc23)CC1` [Compound 365, 4-(4-Benzo[g]quinazolinyl)-N-benzyl-1-piperazinethiocarboxamide] yielded a melting point of 187 to 188 °C. `COc1cc2ncnc(N3CCN(C(=S)NCc4ncc(C(F)(F)F)cc4Cl)CC3)c2cc1OC` [Compound 276, N-(3-Chloro-5-trifluoromethyl-2-picolyl)-4-(6,7-dimethoxy-4-quinazolinyl)-1-piperazinethiocarboxamide] yielded a melting point of 182 to 183 °C. Then `COc1ccc(CNC(=O)N2CCN(c3ncnc4cc(OC)c(OC)cc34)CC2)cc1` [Compound 198, 4-(6,7-Dimethoxy-4-quinazolinyl)-N-(4-methoxybenzyl)-1-piperazinecarboxamide], with 147 to 148 °C; and `COc1cc2ncnc(N3CCN(C(=S)Nc4ccc5c(O)nnc(O)c5c4)CC3)c2cc1OC` [Compound 99, N-(1,4-Dihydroxy-6-phthalazinyl)-4-(6,7-dimethoxy-4-quinazolinyl)-1-piperazinethiocarboxamide], with 153 to 155 °C; and `COC(=O)c1ccc(NC(=S)N2CCN(c3ncnc4cc(OC)c(OC)cc34)CC2)cc1` [Compound 249, 4-(6,7-Dimethoxy-4-quinazolinyl)-N-(4-methoxycarbonylphenyl)-1-piperazinethiocarboxamide], with 208 to 209 °C. In the case of `CC(=O)c1ccc(NC(=O)N2CCN(c3ncnc4c(Cl)cc(Cl)cc34)CC2)cc1` [Compound 378, N-(4-Acetylphenyl)-4-(6,8-dichloro-4-quinazolinyl)-1-piperazinecarboxamide] it was 187 to 188 °C. In the case of `COc1cccc2c(N3CCN(C(=O)Nc4ccc(C(C)=O)cc4)CC3)ncnc12` [Compound 328, N-(4-Acetylphenyl)-4-(8-methoxy-4-quinazolinyl)-1-piperazinecarboxamide] it was 239 to 240 °C; in that of `COc1cc2c(N3CCN(C(=O)Nc4ccc(Oc5ccccc5)cc4)CC3)ncnc2cc1OC(C)C` [Compound 339, 4-(7-Isopropoxy-6-methoxy-4-quinazolinyl)-N-(4-phenoxyphenyl)-1-piperazinecarboxamide], 157 to 160 °C; in that of `CCn1c(=O)n(CC)c2cc3c(N4CCN(C(=O)Nc5ccc(Oc6ccccc6)cc5)CC4)nncc3cc21` [Compound 419, 4-(1,3-Diethyl-1,3-dihydro-2-oxo-2H-imidazo[4,5-g]phthalazin-5-yl)-N-(4-phenoxyphenyl)-1-piperazinecarboxamide], 125 to 128 °C.

On to `COc1cc2ncnc(N3CCN(C(=O)Nc4ccc(F)cc4F)CC3)c2cc1OC` [Compound 50, N-(2,4-Difluorophenyl)-4-(6,7-dimethoxy-4-quinazolinyl)-1-piperazinecarboxamide], for which the melting point was 174 to 175 °C. Then `Cl.Cl.S=C(NCc1cccnc1)N1CCN(c2ccnc3cc(Cl)ccc23)CC1`, with 170 to 173 °C.

Molecule `COc1cc2nccc(N3CCN(C(=O)Nc4ccc(Oc5ccccc5)cc4)CC3)c2cc1OC` [Compound 407, 4-(6,7-Dimethoxy-4-quinolyl)-N-(4-phenoxyphenyl)-1-piperazinecarboxamide] yielded a melting point of 204 to 206 °C. Then `CCCC(=O)c1ccc(NC(=S)N2CCN(c3ncnc4cc(OC)c(OC)cc34)CC2)cc1` [Compound 244, N-(4-Butyrylphenyl)-4-(6,7-dimethoxy-4-quinazolinyl)-1-piperazinethiocarboxamide], with 218 to 219 °C; and `O=C(Nc1ccc(Oc2ccccc2)cc1)N1CCN(c2nccc3ccccc23)CC1` [Compound 422, 4-(1-Isoquinolyl)-N-(4-phenoxyphenyl)-1-piperazinecarboxamide], with 122 to 123 °C. Molecule `S=C(NCc1ccccc1)N1CCN(c2ccnc3ccccc23)CC1` [Compound 395, N-Benzyl-4-(4-quinolyl)-1-piperazinethiocarboxamide] gave a melting point of 75 to 79 °C. In the case of `COc1cc2ncnc(N3CCN(C(=O)NCc4ccc(N(C)C)cc4)CC3)c2cc1OC` [Compound 223, 4-(6,7-Dimethoxy-4-quinazolinyl)-N-(4-dimethylaminobenzyl)-1-piperazinecarboxamide] it was 188 to 190 °C.

A word on the melting point: it is the temperature, or range, at which the solid turns liquid.

The values above are taken from patent publication US6472391B2, “Nitrogen-containing heterocyclic compounds” (Millennium Pharmaceuticals, Inc., priority 1996, dated 2002).
